# According to patent US11446299B2, “Carbazole EHop-016 derivatives as anticancer and anti-migratory agents” (UNIVERSITY OF PUERTO RICO, priority 2017, dated 2022):
# How the values were obtained:
# [1] = test system: MDA-MB-231 breast cancer cells; experiment: Wound healing assay (scratch method), cell migration; format: cell-based, human; conditions: Homo sapiens; percent relative migration at 10 μM after 24 h, relative to control, MDA-MB-231
# Description: The experimental data of anti-migratory activities for compounds 3a-d and 4a-f were obtained using MDA-MB-231 breast cancer cells. For the migration assay, a wound-healing assay (scratch-wound assay) was utilized in the presence of vehicle (0.02% DMSO) or compounds at […].
# Prior to assays, cells were grown until 80-90% confluence was observed. A 75 cm2 flask was used for 2.6×10^5 cells/mL in 10 mL and for a 25 cm2 flask 1.44×10^5 cells/mL in 5 mL. The cells were washed with PBS to remove all traces of FBS. 2 mL was added for a 25 cm2 flasks or 4 mL for a 75 cm2 flasks trypsin, and incubated 5-10 min at 37° C. At the end of the incubation time, cells were re-suspended and counted with hemocytometer using 1:2 dilutions with Trypan blue. Subsequently, cell viability was calculated. In a 12 multiwell plate, the plastic pattern was used to draw a fine space with a fine marker on the bottom of the plate. Cells were seeded at 1.5-2.2×10^5 cells/mL in 1 mL and incubated for 24 h. Cells were then rinsed with PBS and incubated in starving media (0.5% FBS) overnight. All controls and drugs were tested in triplicate. The negative control for each drug was prepared according to the drug's DMSO concentration.
# Drugs were diluted and the final concentration at each well […]. The wound was made using a sterile pipette tip of […]. Cells were then rinsed very gently with media without FBS and media with negative controls was added. After a 24 h incubation, the gap distance was evaluated using the software Lumera Infinity Analyze 6.4.0. Pictures were taken at 0, 8, 12 and 24 h using a 10× objective. The percentage of migration was calculated using the following formula: 100−[(X0/X0)]*100 for time 0 h measurements 100−[(X24/X0)]*100 for time 24 h measurements
# The experimental data of anti-migratory activities for compounds 3a-d and 4a-f were obtained using MDA-MB-231 breast cancer cells, and results are summarized in Table 1. For the migration assay, we used a wound-healing assay (scratch-wound assay)^22 in the presence of vehicle (0.02% DMSO) or compounds at 10 μM (FIG. 6). […] However, compounds 3a, 3c, and 4a-f inhibited migration in the range of 1-9%.
# An additional example of a compounds with modification in building block C was synthesized via a different procedure as represented in Scheme 2B (see FIG. 11B). The compounds that were synthesized were tested for their biological activity by determination of their cytotoxicity in MDA-MB-231 breast cancer cell lines as shown in Table 5. The cytotoxicity's are expressed as IC50, which indicates the concentration at which 50% of the cell growth is inhibited. Furthermore, the inhibition of cell migration was tested at a concentration of 0.2×IC50, or, when the IC50 was >50 μM at a concentration of 10 μM. For comparison, Table 5 also includes the Lipinski and drug-likeness parameters as calculated via the MolSoft platform.
# Migration assays were performed via the Scratch Method as described previously.
# GFP-MDA-MB-231 cells = experiment: Mammary tumor growth and metastasis in immunocompromised mice; format: in vivo; conditions: 1 mg/kg BW i.p., Monday to Friday, approximately 2 months
# Description: FIG. 18 (A-D). Effect of HV-118 on mammary tumor growth. Severe combined immune deficiency (SCID) mice were inoculated at the mammary fat pad with GFP-MDA-MB-231 cells and treated with 0 (Vehicle) or 1 mg/kg BW HV-118 (5× a wk). FIG. 18A. Upper panel, representative images and lower panel, average relative tumor growth on last day. FIG. 18B. Relative tumor growth as a function of days following HV-118 administration. Lungs and livers were removed at necropsy and imaged for fluorescent metastatic foci. FIG. 18C. Representative organs under fluorescence microscopy for 0 (Vehicle) and 1 mg/kg BW HV-118 treatment. FIG. 18D. […]
# Preliminary data supporting HV-118 as a potent inhibitor of Rac activation in breast cancer cells was confirmed. […] Tumor growth and metastasis were assessed by fluorescent imaging. HV-118 toxicity was also determined.
# An in vivo study was performed to assess HV-118 toxicity and test its effects in mammary tumor growth and metastasis. […] The effects of HV-118 on tumor growth were monitored weekly by in situ fluorescence image analysis (starting from day 1 of treatment). Mammary tumor growth was quantified using Image J software, as the pixel intensity (integrated density) determined from digital tracing of the fluorescent tumor area at each imaging session and calculated as a function of the fluorescence intensity on day one of treatment. […]
# [2] = HV-118 toxicity assessment in mice; format: in vivo; conditions: 1 mg/kg BW
# Description: FIG. 19 (A-C). HV-118 toxicity assessment. Blood collected at necropsy was used for FIG. 19A. complete blood count (CBC) analysis and FIG. 19B. determination of serum levels of liver enzymes Alanine Aminotranferase (ALT), Aspartate Aminotransferse (AST), and Alkaline phosphatase (ALP). N=4-5 mice/group; error bars represent ±SEM. FIG. 19C. Average mouse weight as a function of days following HV-118 administration. N=13-15 mice/group.
# An in vivo study was performed to assess HV-118 toxicity and test its effects in mammary tumor growth and metastasis. Immunocompromised mice were inoculated with green fluorescent protein (GFP)-tagged MDA-MB-231 cells. After tumors reached an average size of 80 mm^3, mice (n=15/group) were administered with control or HV-118 at 1 mg/kg body weight (BW) by intraperitoneal (i.p.) injection every day from Monday to Friday for approximately 2 months. The effects of HV-118 on tumor growth were monitored weekly by in situ fluorescence image analysis (starting from day 1 of treatment). Mammary tumor growth was quantified using Image J software, as the pixel intensity (integrated density) determined from digital tracing of the fluorescent tumor area at each imaging session and calculated as a function of the fluorescence intensity on day one of treatment. At necropsy, blood was collected, and organs were dissected and stored in liquid nitrogen. Metastatic foci were quantified for fluorescence intensity and area of fluorescence (lesion size) for each organ by Image J analysis of digital images from a fluorescence stero microscope. […] Toxicity was assessed by: 1) performing a hematologic profile (complete blood count (CBC) analysis), 2) measuring serum levels of liver enzymes Alanine Aminotranferase (ALT), Aspartate Aminotransferse (AST), and Alkaline phosphatase (ALP), and 3) monitoring animal weight throughout the study.
smiles,measurement,setting,value
"CCn1c2ccccc2c2cc(C(=O)Nc3cccnc3N3CCOCC3)ccc21 [Compound 11b, 9-Ethyl-9H-carbazole-3-carboxylic Acid (2-morpholin-4-yl-pyridin-3-yl)-amide]",activity at 10 µM,[1],66 ± 7.43%
"CCn1c2ccccc2c2cc(Nc3cc(C)nc(Cl)n3)ccc21 [HV-118, (2-Chloro-6-methyl-pyrimidin-4-yl)-(9-ethyl-9H-carbazol-3-yl)-amine]",reduction in metastasis to lung and liver,GFP-MDA-MB-231 cells,> 90%
same,reduction in tumor growth,GFP-MDA-MB-231 cells,30%
same,toxicity at the tested dose,[2],no toxicity
same,hematologic profile (complete blood count),[2]; blood at necropsy,no changes
same,"serum levels of ALT, AST, or ALP",[2]; blood at necropsy,no changes
same,mice weights,[2]; throughout the study,no changes
